Laboratory results from patent US11554373B2 (priority 2016, dated 2023).
Where a name gives a salt, the structure may show the parent alone.

Assays:
CYP3A4 = CYP3A4 (Homo sapiens, UniProt P08684); experiment: Liver cytochrome p450 activity, endpoint D7; type: cell-based; settings: 4-O systems, 50 uM amiodarone vs untreated controls
Experimental: (§1) Cytochrome p450 1A1 and 3A4 isoforms from the hepatic cultures were assessed with a luciferin based method in two reactions. Basal activities were compared to induced activities upon incubations with 10 nM TCDD (Sigma, 48599) and 20 μM Rifampicin (Sigma, R3501) for 48 h, prior to the analysis. At 7, 14, 21 and 28 DIV, cells were rinsed 3 times with 1×PBS and incubated with 1A1 specific substrate, Luciferin-CEE (120 μM) (Promega, V8752) in phenol red-free 1×DMEM (Thermo Fisher Scientific, A1443001) for 3 h at 37° C. The enzymatic product (D-Luciferin) of the first reaction was collected and stored at −80° C. until further analysis. […] Twenty minutes after incubation at room temperature in the dark, luminescence was measured using a Synergy HT plate reader with KC4 software. […] 3A4 samples were measured separately from 1A1 samples due to high differences in luminescence emission. Similarly, induced and uninduced samples were measured separately. Each plate was measured a minimum of 5 times to ensure the photomultiplier detector was stabilized, and the average of all readings was taken for the final RLU values. A regression line with the standards (0.5-500 nM diluted in 1×DMEM), subtracting intrinsic DMEM luminescence from values, was obtained for each analysis. […]

skeletal muscle myotubes = experiment: Skeletal muscle force on cantilevers in 3-O/4-O systems; type: cell-based, human; settings: 50 uM; up to four days after dose, with or without THP-1
Experimental: (§2) A four-organ system (4-O) was developed to contain a liver compartment, recirculating THP-1 cells, and three separate bioMEMs devices to measure the cardiomyocytes' electrical and mechanical functionality, as well as the mechanical function of the skeletal muscle. Three organ systems (3-0) were also developed to serve as a monocyte-free control for the 4-O systems. […] Cardiac and skeletal muscle mechanical function was evaluated by seeding the cardiomyocytes and skeletal muscle onto their own respective custom arrays of microscale cantilevers. Contractile force of the cardiac and skeletal muscle was calculated from laser-based measurements of cantilever bending resulting from contractile muscle (Stancescu et al 2015). Cardiac electrical function was measured via a microelectrode array amplifier system by incorporating and patterning cardiomyocytes onto custom microelectrode arrays with chemical patterning to produce a defined conduction path along a series of surface embedded microelectrodes (Nataraj an et al 2011, Stancescu et al 2015). Electrical stimulation for skeletal muscle force was generated inside the system with housing-embedded electrodes for cantilevers. […]
(§3) Cardiac and skeletal muscle contractions were measured using a cantilever deflection system that has been described previously (McAleer, 2014; Oleaga, 2016; Oleaga, 2017; Pirozzi, 2013). […]

liver tissue = experiment: THP-1 infiltration into liver module by immunocytochemistry (CD11b, CD86); type: cell-based, human; settings: systems with recirculating THP macrophages, amiodarone, vs controls
Experimental: At the end of each experiment, cardiac cMEAs and hepatocyte coverslips were fixed with 4% paraformaldehyde in 1×PBS for 5 minutes. Cells were rinsed twice with 1×PBS and Cells were permeabilized with a solution of 0.1% Triton X-100 in 1×PBS for 15 minutes then blocked with 5% donkey serum in 1×PBS for 20 minutes. Cells were then incubated overnight at 4° C. with primary antibody in blocking solution. Primary antibodies used were anti-CD14, anti-CD16, anti-CD69, anti-CD11b, anti-CD86, and anti-CCR5. Following three, five-minute washes with 1×PBS, cells were incubated for 2 hours at room temperature in the dark with a secondary antibody conjugated to Alexa-488 fluorophore, or Alexa-568 fluorophore. Following the secondary antibody incubation, surfaces were washed 3× in PBS and incubated with 3 mM 4′-6-Diamidino-2-Phenylindole (DAPI) in 1×PBS for 10 min, in the dark and at RT for nuclei staining. DAPI solution was removed and the cells were washed 3× with PBS. Finally, coverslips were mounted on glass slides using a Hard Set Mounting with DAPI (Vector laboratories, Inc.). Alternatively, MEAs were left in the final 1×PBS rinse and imaged using a water immersion lens.

[1] = system: IPSC derived cardiomyocytes; experiment: Cardiac conduction velocity on patterned cMEA in 3-O/4-O systems; type: cell-based, human
Experimental: as §2
Custom patterned multielectrode arrays (cMEAs) were fabricated to simultaneously stimulate and record electrical activity of cardiomyocytes cultured on the surface (100 μm diameter electrodes, 1000 μm between electrodes). Before culturing, the surfaces were modified to promote cell adhesion in an unbroken “U” pattern that connected multiple electrodes, allowing conduction velocity of the cells to be recorded at different points (14 mm total path length). […]
Drug additions were performed on day 3 of the experiment, immediately after baseline recordings of spontaneous and stimulated cell activity were taken. Cell activity was recorded again 48 and 96 hours after drug exposure. […]

cardiac cells = experiment: Endpoint viability (alamar blue) of cardiac chips; type: cell-based, human; settings: 50 uM; endpoint day 7
Experimental: (§4) Cell viability was evaluated in one of three ways depending on the surface the cells were grown on. […] The viability of cardiac and skeletal muscle cells plated on BioMEMs devices was assessed using an alamar blue solution (Thermofisher, DAL1025). Surfaces were incubated in 500 μL of a 10% solution (v:v) of alamar blue in growth medium at 37° C., 5% CO2 for 24 hours. 100 μL of the solution was placed into a 96 well plate and read at fluorescence excitation wavelength 570 nm and emission at 590 nm using the BioTeK Synergy HT plate reader.

skeletal muscle cells = experiment: Endpoint viability (alamar blue) of skeletal muscle chips; type: cell-based, human; settings: 50 uM; endpoint day 7
Experimental: as §4

[2] = system: IPSC derived cardiomyocytes; experiment: Cardiac spontaneous beat frequency in 3-O/4-O systems; type: cell-based, human
Text: Custom patterned multielectrode arrays (cMEAs) were fabricated to simultaneously stimulate and record electrical activity of cardiomyocytes cultured on the surface (100 μm diameter electrodes, 1000 μm between electrodes). Before culturing, the surfaces were modified to promote cell adhesion in an unbroken “U” pattern that connected multiple electrodes, allowing conduction velocity of the cells to be recorded at different points (14 mm total path length). Patterned cMEAs were introduced to the housings during system assembly on day 0 of the experiment.
Printed circuit boards (PCBs) and flexible elastomeric connectors (zebra connectors, FUJIPOLY, 1 mm wide×18.2 mm long×9 mm tall) were incorporated into each system to create an interface between the cMEA and a commercially available 60 electrode amplifier (MEA1060, Multichannel-systems). This amplifier was used to both record spontaneous and stimulated electrical activity of the cardiomyocytes. A stimulus generator (STG 1002, Multichannel Systems) was used to stimulate the cells (800 mV rectangular pulse, 0.5 Hz to 3.0 Hz in 0.25 Hz increments). The multichannel systems software suite was used to control both the amplifier and stimulator, and was used to record action potentials.
Drug additions were performed on day 3 of the experiment, immediately after baseline recordings of spontaneous and stimulated cell activity were taken. Cell activity was recorded again 48 and 96 hours after drug exposure. Conduction velocity (CV), spontaneous beat frequency and minimum interspike interval (MIST) were extracted from the data using Clampfit (Axon Instruments).
Spontaneous beat frequency was obtained from spontaneous recordings of cardiac activity 20 seconds in length. For each recording, the frequency was calculated as the number of measured action potentials divided by the length of time between the first and last action potential during the recording interval. […]

[3] = HPLC/MS determination of amiodarone remaining in system medium; type: in vitro ADME; settings: 24 hours post-dose
Experimental: Drug addition to the 3-O and 4-O systems was performed on D3 post-assembly. On the day of addition, 3× concentrations of each drug in the serum-free, multi-organ system medium (MOSM) were prepared in advance. ⅓ of the media in each system was removed and replaced with an equal volume of the concentrated drug solution. This facilitated for rapid mixing and complete diffusion of the drugs in the systems without requiring a full media change. […] Lipopolysaccharide (LPS, Sigma-Aldrich, L2630) was dissolved in PBS 1× at a concentration of 1 μg/mL and interferon-γ (IFN-γ) (Sigma-Aldrich, 11040596001) was dissolved in DI water at a concentration of 100,000 units/mL. LPS and IFN-γ were administered as a single cocktail at final concentrations of 10 ng/mL and 100 units/mL, respectively.
Medium samples collected from the systems were spiked with a tamoxifen internal standard (10 nM final measured concentration) and combined with acetonitrile at a 1:3 ratio to extract proteins. The mixtures were then centrifuged at 100×G for 5 minutes and supernatants were collected and diluted 1 to 51 in the initial mobile phase. […] Quantification and qualification ions for tamoxifen were 372.2→72.1 (28 eV CE) and 372.2→44 (48 eV), respectively. […]

THP-1 cells [4] = experiment: Viability of THP-1 cells treated directly; type: cell-based, human; settings: amiodarone treatment of THP-1 cells alone
cardiac tissue = experiment: THP-1 cell infiltration into cardiac tissue (phase contrast, CellTracker Red); type: cell-based, human; settings: 4-O system dosed with amiodarone, after three days
Experimental: THP-1 cells were collected in a 15 mL conical tube and centrifuged to a pellet at 300 g for 5 minutes. The cells were resuspended and counted and the volume adjusted to 1×10^6 cells/mL. Then cells were then incubated with Cell Tracker Red CMTPX Dye (ThermoFisher C34552) following the manufacturer's protocol. The dye loaded cells were then used for infiltration studies in 4-O systems as described.

3-O systems+THP-1 cells = experiment: Cytokine release in multi-organ systems; type: cell-based, human; settings: 50 uM amiodarone; 7-day time course
[5] = system: IPSC derived cardiomyocytes; experiment: Cardiac contractile force on cantilevers in 3-O/4-O systems; type: cell-based, human
Experimental: as §2, §3

CYP2C9 = CYP2C9 (Homo sapiens, UniProt P11712); experiment: Liver cytochrome p450 activity, endpoint D7; type: cell-based; settings: 4-O systems, 50 uM amiodarone vs untreated controls
CYP2C9, sequence (P11712 whole entry): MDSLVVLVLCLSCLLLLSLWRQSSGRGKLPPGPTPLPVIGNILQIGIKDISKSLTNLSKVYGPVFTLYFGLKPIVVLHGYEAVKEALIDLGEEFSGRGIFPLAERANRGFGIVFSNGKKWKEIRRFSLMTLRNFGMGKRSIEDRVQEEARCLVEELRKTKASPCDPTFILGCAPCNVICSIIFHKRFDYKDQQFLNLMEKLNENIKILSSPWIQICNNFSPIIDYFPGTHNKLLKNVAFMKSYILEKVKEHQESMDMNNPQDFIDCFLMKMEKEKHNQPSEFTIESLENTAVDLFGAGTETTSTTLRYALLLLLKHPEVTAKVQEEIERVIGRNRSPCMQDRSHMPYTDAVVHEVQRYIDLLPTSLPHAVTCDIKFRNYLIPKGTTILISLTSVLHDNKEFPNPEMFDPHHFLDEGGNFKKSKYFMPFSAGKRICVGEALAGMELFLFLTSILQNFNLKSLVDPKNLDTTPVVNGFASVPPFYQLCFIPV

CYP1A = experiment: Liver cytochrome p450 activity, endpoint D7; type: cell-based, human; settings: 4-O systems, 50 uM amiodarone vs untreated controls
Experimental: as §1

THP-1 cells [6] = experiment: THP-1 cell activation by flow cytometry (CCR5, CD11b, CD86); type: cell-based, human; set-up: CD86 expression (printed C86): dose or concentration left out as unconfirmed
Experimental: THP-1 monocytes (ATCC, TIB-202) were cultured in T-75 flasks according to the protocol recommended by ATCC. […] THP-1 cells show a proclivity towards forming large aggregates of loosely joined cells. These clumps were broken down back into single cells through the addition of deoxyribonuclease 1 (DNase 1, dissolved in 0.85% NaCl in water) (Sigma-Aldrich, D4513) at a concentration of 0.1 mg/mL. When cells had reached their optimal density, they were harvested and pelleted via centrifugation at 150×g for 5 min, resuspended in multi-organ system medium (MOSM) and added to the systems at a physiologically relevant concentration of 250,000 cells/mL. THP-1 cell adhesion to the inside surfaces of the housings was minimized by passivating the inside surfaces with bovine serum albumin (BSA, 0.5 mg/mL dissolved in PBS). 10 uL of medium was removed from each system daily to determine the number of freely recirculating cells present. Initial THP-1 culture medium consisted of RPMI 1640 base medium (ThermoFisher, 11875135) with 10% fetal bovine serum (ThermoFisher, 16000044) and 1× GlutaMAX (ThermoFisher, 35050061).

[7] = 50 uM acute, 4-O systems (with THP-1 cells)
[8] = 50 uM, 4-O systems, D4 after dose
[9] = 50 uM, without THP-1, vs untreated 3-O systems
[10] = amiodarone treatment of THP-1 cells alone
[11] = recirculating THP-1 cells from 4-O & 4-O+Amiodarone systems, days 1, 3, 5, 7
[12] = THP-1 culture dosed with 50 μM PMA (positive control)

CYP3A4, sequence (P08684 whole entry, canonical isoform): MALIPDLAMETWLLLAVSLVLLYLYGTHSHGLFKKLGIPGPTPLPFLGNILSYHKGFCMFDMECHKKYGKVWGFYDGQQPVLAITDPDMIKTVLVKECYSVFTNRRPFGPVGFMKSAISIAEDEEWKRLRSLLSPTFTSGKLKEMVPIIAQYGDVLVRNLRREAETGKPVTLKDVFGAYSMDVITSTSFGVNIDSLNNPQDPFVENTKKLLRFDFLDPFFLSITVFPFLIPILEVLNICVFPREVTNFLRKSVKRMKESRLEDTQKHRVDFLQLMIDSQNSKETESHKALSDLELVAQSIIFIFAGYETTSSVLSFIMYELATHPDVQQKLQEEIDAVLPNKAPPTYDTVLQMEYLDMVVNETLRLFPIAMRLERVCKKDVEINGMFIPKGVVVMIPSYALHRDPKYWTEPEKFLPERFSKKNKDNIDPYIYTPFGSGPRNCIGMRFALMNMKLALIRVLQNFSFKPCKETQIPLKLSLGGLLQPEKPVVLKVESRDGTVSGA

CCCCc1oc2ccccc2c1C(=O)c1cc(I)c(OCCN(CC)CC)c(I)c1 [amiodarone, Amiodarone hydrochloride]
CYP3A4 activity (CYP3A4): significantly reduced
effect on skeletal muscle force (skeletal muscle myotubes): no significant effect
CD11b and CD86 staining of liver cells (THP infiltration) (liver tissue): increase
decrease in cardiac conduction velocity [1, 7]: 50%
conduction velocity at D4 [1, 8]: recovery
reduction of cardiac conduction velocity [1, 9]: 20%
cardiac chip viability (cardiac cells): does not significantly reduce viability
skeletal muscle chip viability (skeletal muscle cells): does not significantly reduce viability
decrease in cardiac beat frequency [2, 7]: 60%
beat frequency at D4 [2, 8]: recovery
reduction of cardiac beat frequency [2, 9]: 45%
amiodarone mean concentration still present in the systems ([3]; 50 μM dose, 3-O systems+THP-1 cells): 1.41 µM
reduction of amiodarone in medium ([3]; from 50 μM): 97%
THP-1 cell viability (THP-1 cells [4]): did not significantly alter
THP-1 cell infiltration into cardiac tissue (cardiac tissue): visibly infiltrated
IL-6 level (3-O systems+THP-1 cells): increased
IL-8 level (3-O systems+THP-1 cells): increased
MCP-1 level (3-O systems+THP-1 cells): increased
decrease in cardiac force output [5, 7]: 80%
decrease in cardiac force output ([5]; acute dose 50 uM, printed as 4-O systems treated vs untreated systems): 50%
CYP2C9 activity (CYP2C9): not affected
CYP1A activity (CYP1A): not affected
CCR5 expression (THP-1 cells [6]; [10]): did not significantly alter
CD11b expression (THP-1 cells [6]; [10]): did not significantly alter
CD86 expression (THP-1 cells [6]; [10]): did not significantly alter
CCR5 expression (THP-1 cells [6]; [11]): largely stable
CD11b expression (THP-1 cells [6]; [11]): increased
CD86 expression (THP-1 cells [6]; [11]): largely stable

CCCCCCCCCCCCCC(=O)O[C@@H]1[C@@H](C)[C@@]2(O)[C@@H](C=C(CO)C[C@]3(O)C(=O)C(C)=C[C@@H]23)[C@@H]2C(C)(C)[C@]12OC(C)=O [PMA, phorbol 12-myristate 13-acetate]
increase in CCR5 expression (THP-1 cells [6]; [12]): 8%
increase in CD11b expression (THP-1 cells [6]; [12]): 23%
CD86 expression (printed C86) (THP-1 cells [6]; THP-1 culture dosed with PMA (positive control)): relatively unchanged
